Laboratory results published in PMC1810525, “Antagonism of the prostaglandin D2 receptor CRTH2 attenuates asthma pathology in mouse eosinophilic airway inflammation” (Respiratory Research, 2007).

Legend:
[1] = tested on: OVA-challenged BALB/c mice; assay: Mouse model of allergic asthma (OVA), bronchoalveolar lavage eosinophils; type: in vivo; conditions: 5 mg/kg orally twice daily, 24 hr after second challenge, allergen/vehicle 1.0 ± 0.2 %
From the text: Female BALB/c mice about 6 weeks of age (MoB A/S; Ry, Denmark) were kept in well-controlled animal housing facilities and fed ad libitum. The study was approved by the Regional Ethics Committee in Malmoe-Lund, Sweden. […] Sigma) at day 0 as described previously. […] Control animals received saline challenge. Animals were sacrificed 24 hr after the last allergen challenge by pentobarbital i.p followed by bronchoalveolar lavage (BAL) and lung tissue sampling. In preliminary studies it was ascertained that daily allergen challenges for only a few days sufficed to produce a significant airway tissue eosinophilia as well as goblet cell hyperplasia. On days 14 and 15 mice were treated twice daily with TM30089 and ramatroban (BAY3405), 5 mg/kg orally. […] Drugs were administered 30 minutes before and 4 hr after each challenge. The dose of ramatroban was selected in accord with previous reports. […] The total number of cells was quantified using a […] (NucleoCounter®, Chemometec A/S, Allerod, Denmark) and 5 × 10^5 cells cytocentrifuged to microscope slides. Differential cell counts were performed on May-Grünwald Giemsa stained slides and percentage of eosinophils, lymphocytes, neutrophils, and macrophages determined by counting 200–300 cells in a blinded manner. […]

mCRTH2 = biological target: T1, mCRTH2 (Mus musculus, UniProt Q9Z2J6); assay: Inositol phosphate accumulation assay, mCRTH2-HEK cells (Schild analysis vs PGD2); type: cell-based; conditions: PGD2 concentration-response, InsP
T1 construct: expressed in transfected cells
T1 sequence (Q9Z2J6 1-382): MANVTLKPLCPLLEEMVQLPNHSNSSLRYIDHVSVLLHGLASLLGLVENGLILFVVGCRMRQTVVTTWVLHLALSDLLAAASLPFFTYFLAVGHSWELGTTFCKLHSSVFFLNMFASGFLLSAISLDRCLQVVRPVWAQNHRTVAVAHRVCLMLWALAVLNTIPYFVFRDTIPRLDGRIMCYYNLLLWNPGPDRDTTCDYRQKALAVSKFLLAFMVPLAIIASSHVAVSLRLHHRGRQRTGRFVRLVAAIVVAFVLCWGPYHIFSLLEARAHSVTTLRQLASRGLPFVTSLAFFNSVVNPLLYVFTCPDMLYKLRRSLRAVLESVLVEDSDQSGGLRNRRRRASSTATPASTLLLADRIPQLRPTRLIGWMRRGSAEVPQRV
From the text: (§1) The coding sequence of mCRTH2 (genbank accession no. AF054507) was amplified by PCR from mouse hippocampus cDNA and inserted into the pcDNA3.1(+) expression vector (invitrogen). A HEK293 cell line, stably expressing mCRTH2 (hereafter referred to as mCRTH2-HEK cells) was generated under G418 (Gibco #11811) selection and used as described below in whole cell binding and functional inositol phosphate accumulation assays. The coding sequence of mTP (genbank accession no. D10849) was amplified by PCR from mouse spleen cDNA and inserted into pcDNA3.1(+). HEK293 cells were transiently transfected with mTP as described and assayed after 48 hr as outlined below.
mCRTH2-HEK or HEK cells transiently transfected with mTP were seeded at a density of 30.000 cells/well in poly-D-lysine coated 96-well tissue culture plates and labeled by overnight incubation in medium containing 5 μCi myo- [2-^3H]-inositol (TRK911, Amersham Biosciences). After washing, cells were stimulated with the respective ligands in the presence of 5 mM LiCl (HBSS, GIBCO cat. 14025–050, 45 min, 37°C) and the inositol phosphate fraction was quantified using a scintillation proximity assay (SPA) as described previously. To facilitate inositol phosphate generation by the Gi-selective CRTH2 receptor, mCRTH2-HEK cells were transiently transfected with a promiscuous Gα protein [29].
was performed using the Prism 3.0 software (GraphPad Software, San Diego) as described previously with the following exceptions: Binding data from competition binding assays were normalized to percent of specific binding of [^3H]PGD2 or [^3H]SQ29548 and the Ki was then determined using the Cheng-Prusoff equation Ki = IC50/(1+L/Kd), where L is the concentration of radioactive ligand and Kd is its dissociation constant. For Schild analysis, global fitting using the Gaddum/Schild competitive interaction model was applied after the functional concentration-response curves for the agonists PGD2 or U46619 in the absence or presence of various antagonist concentrations were normalized to percent of the maximal response obtained by agonist alone.

mTP = biological target: T2, mTP (Mus musculus, UniProt P30987); assay: mTP whole cell competition binding ([3H]SQ29548); conditions: displacement of [3H]SQ29548, HEK cells transfected with mTP
T2 construct: expressed in transfected cells; host or cells: HEK293 (transient, pcDNA3.1(+))
T2 sequence (P30987 1-341): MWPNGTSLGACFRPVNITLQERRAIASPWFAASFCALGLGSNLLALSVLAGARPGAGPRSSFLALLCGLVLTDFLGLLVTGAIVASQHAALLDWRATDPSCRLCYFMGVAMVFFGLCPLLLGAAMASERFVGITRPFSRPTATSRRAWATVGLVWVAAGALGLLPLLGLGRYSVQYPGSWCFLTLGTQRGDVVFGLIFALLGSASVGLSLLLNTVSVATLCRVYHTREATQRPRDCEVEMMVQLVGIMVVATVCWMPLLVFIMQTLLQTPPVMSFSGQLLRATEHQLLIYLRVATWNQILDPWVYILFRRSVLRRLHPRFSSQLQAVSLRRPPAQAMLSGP
From the text: as §1
Binding assays were performed essentially as described previously. […] Total and nonspecific binding were determined in the absence and presence of 10 μM PGD2 for mCRTH2 and 10 μM U46619 for mTXA2 receptors.
was performed using the Prism 3.0 software (GraphPad Software, San Diego) as described previously with the following exceptions: Binding data from competition binding assays were normalized to percent of specific binding of [^3H]PGD2 or [^3H]SQ29548 and the Ki was then determined using the Cheng-Prusoff equation Ki = IC50/(1+L/Kd), where L is the concentration of radioactive ligand and Kd is its dissociation constant. […]

Structure (SMILES) | BALF eosinophils [1] | Schild slope mCRTH2 (mCRTH2) | pA2 mCRTH2 (mCRTH2) | pKi mTP (mTP) | Kb (mCRTH2; read-out: pA2 mCRTH2 (converted)) | Ki (mTP; read-out: pKi mTP (converted))
CN(C1CCc2c(c3ccccc3n2CC(=O)O)C1)S(=O)(=O)c1ccc(F)cc1 (centres unmarked) [TM30089] | 0.5 ± 0.01% | 1.45 ± 0.08 | 9.15 ± 0.11 | 5.30 ± 0.03 |  | 
O=C(O)CCn1c2c(c3ccccc31)C[C@H](NS(=O)(=O)c1ccc(F)cc1)CC2 [ramatroban, reference compound] | 0.4 ± 0.01% | 0.94 ± 0.05 |  |  | 8.32 nM | 1.2 nM
